# Marks after values point to notes of the source that are not given here.
# Experiments:
# [1] = ref Food Safety Commission of Japan; cited from earlier work
# CYP1A [2] = assay: Hepatic microsomal EROD activity after oral administration for five days; details: five consecutive days, P≤0.05
# CYP2D [3] = assay: Hepatic microsomal BLH activity after oral administration for five days; details: five consecutive days, P≤0.05
# CYP2B6 = details: read-out: IC50 for CYP2B6; human microsomes; cited from earlier work
# CYP2D6 = details: read-out: IC50 for CYP2D6; human microsomes; cited from earlier work
# CYP3A [4] = assay: Hepatic microsomal MDZH activity after oral administration for five days; details: five consecutive days, P≤0.05
# cytochrome P450 = details: five days; for Effect of oral treatment on total CYP content: decrease seen at high dose, P≤0.05; for Total cytochrome content, High dose / Total cytochrome content, Low dose: male SD rats, oral, mean ± SD (n=5); for Total cytochrome content, High dose: one-tenth of LD50; for Total cytochrome content, Low dose: one-thirtieth of LD50
# CYP2C [5] = assay: Hepatic microsomal TBH activity after oral administration for five days; details: five consecutive days, P≤0.05
# CYP1A [6] = assay: Inhibition of ethoxyresorufin O-deethylation; assay type: in vitro ADME; details: rat hepatic microsomes; for Concentration that evidently inhibited EROD: Fig. 2
# CYP1A1/2 = details: read-out: IC50 for CYP1A1/2; human microsomes; cited from earlier work
# CYP2C [7] = assay: Inhibition of tolbutamide hydroxylation; assay type: in vitro ADME, rat; details: at 1,000 µM
# CYP3A [8] = assay: Inhibition of midazolam 4-hydroxylation; assay type: in vitro ADME, rat; details: at 1,000 µM
# CYP2D [9] = assay: Inhibition of bufuralol 1'-hydroxylation; assay type: in vitro ADME, rat; details: at 1,000 µM
# CYP2C8 = details: read-out: IC50 for CYP2C8; human microsomes; cited from earlier work
# CYP2C9 = details: read-out: IC50 for CYP2C9; human microsomes; cited from earlier work
# CYP2D [10] = details: read-out: Km of bufuralol reported in rats; cited from earlier work
# CYP1A [11] = details: read-out: Km of ethoxyresorufin reported in rats; cited from earlier work
# CYP1A [12] = details: cited from earlier work
# CYP3A [13] = details: read-out: Km of midazolam reported in rats; cited from earlier work
# CYP2C [14] = details: read-out: Km of tolbutamide reported in rats; cited from earlier work
# CYP = details: hen treated with tribufos; cited from earlier work
compound,measurement,setting,value
"CCOP(=S)(OCC)Oc1nc(Cl)c(Cl)cc1Cl [Chlorpyrifos, chlorpyrifos]",Acceptable daily intake (ADI),[1],0.001 mg/kg/day
same,Microsomal activity of EROD compared with control group,CYP1A [2],no significant effects
same,Microsomal activity of BLH compared with control group,CYP2D [3],no significant effects
same,IC50,CYP2B6,2500 nM
same,IC50,CYP2D6,~3000 nM
same,Microsomal activity of MDZH compared with control group,CYP3A [4],no significant effects
same,Effect of oral treatment on total CYP content,cytochrome P450,significantly decreased
same,"Total cytochrome content, High dose",cytochrome P450,1.30 ± 0.48^a) nM/mg protein
same,"Total cytochrome content, Low dose",cytochrome P450,1.69 ± 0.18 nM/mg protein
same,Microsomal activity of TBH compared with control group,CYP2C [5],no significant effects
same,Manner of EROD inhibition,CYP1A [6],noncompetitive
same,Concentration that evidently inhibited EROD,CYP1A [6],less than 1 µM
same,IC50,CYP1A1/2,~3000 nM
"COP(=O)(OC)OC=C(Cl)Cl [Dichlorvos, dichlorvos]",Microsomal activity of EROD compared with control group,CYP1A [2],no significant effects
same,Inhibitory effect on TBH,CYP2C [7],not evident
same,Microsomal activity of BLH compared with control group,CYP2D [3],no significant effects
same,Microsomal activity of MDZH compared with control group,CYP3A [4],no significant effects
same,Effect of oral treatment on total CYP content,cytochrome P450,not significantly affected
same,"Total cytochrome content, High dose",cytochrome P450,1.75 ± 0.18 nM/mg protein
same,"Total cytochrome content, Low dose",cytochrome P450,1.69 ± 0.40 nM/mg protein
same,Microsomal activity of TBH compared with control group,CYP2C [5],no significant effects
same,Inhibitory effect on MDZH,CYP3A [8],not evident
same,Inhibitory effect on BLH,CYP2D [9],not evident
"COP(=S)(OC)Oc1ccc([N+](=O)[O-])c(C)c1 [Fenitrothion, fenitrothion]",IC50,CYP2C8,4300 nM
same,Acceptable daily intake (ADI),[1],0.005 mg/kg/day
same,Microsomal activity of EROD compared with control group,CYP1A [2],significantly lower
same,IC50,CYP2B6,2500 nM
same,IC50,CYP2C9,4800 nM
same,Microsomal activity of MDZH compared with control group,CYP3A [4],significantly lower
same,Effect of oral treatment on total CYP content,cytochrome P450,not significantly affected
same,"Total cytochrome content, High dose",cytochrome P450,1.18 ± 0.23 nM/mg protein
same,"Total cytochrome content, Low dose",cytochrome P450,1.38 ± 0.51 nM/mg protein
same,Microsomal activity of TBH compared with control group,CYP2C [5],significantly higher
same,Manner of EROD inhibition,CYP1A [6],noncompetitive
same,Concentration that evidently inhibited EROD,CYP1A [6],less than 1 µM
same,IC50,CYP1A1/2,~3000 nM
CCc1cccc2cc(C(O)CNC(C)(C)C)oc12 (stereo not shown) [bufuralol],Km,CYP2D [10],6.4 µM
CCOc1ccc2nc3ccc(=O)cc-3oc2c1 [ethoxyresorufin],Km,CYP1A [11],0.227 µM
CC1(C)C(C(=O)OC(C#N)c2cccc(Oc3ccccc3)c2)C1(C)C (stereo not shown) [fenpropathrin],Effect on hepatic CYP1A,CYP1A [12],potent inhibitor of CYP1A
CCOC(=O)CC(SP(=S)(OC)OC)C(=O)OCC (stereo not shown) [malathion],IC50,CYP2C9,2500 nM
Cc1ncc2n1-c1ccc(Cl)cc1C(c1ccccc1F)=NC2 [midazolam],Km,CYP3A [13],22 µM
CC1(C)C(C=C(Cl)Cl)C1C(=O)OCc1cccc(Oc2ccccc2)c1 (stereo not shown) [permethrin],Effect on hepatic CYP1A,CYP1A [12],potent inhibitor of CYP1A
CCOC(=O)C(SP(=S)(OC)OC)c1ccccc1 (stereo not shown) [phenthoate],IC50,CYP2D6,~3000 nM
CCCSP(=O)(OCC)Oc1ccc(Br)cc1Cl (stereo not shown) [profenofos],IC50,CYP1A1/2,~3000 nM
CCCCNC(=O)NS(=O)(=O)c1ccc(C)cc1 [tolbutamide],Km,CYP2C [14],1910 µM
"CCCCSP(=O)(SCCCC)SCCCC [tribufos, S,S,S-tri-n-butyl phosphorotrithioate]",Increase of CYP content in hepatic microsomes,CYP,2–3 fold

# — publication PMC7273600 (The Journal of Veterinary Medical Science, 2020)
